Measurements taken from patent publication US5968795A, “Biaryl acetylenes as inhibitors of matrix metalloproteases” (Bayer Corporation, priority 1997, dated 1999).
Read-outs that look alike come from different tables or passages of the source.

Key:
[1] = target: T1, Human Recombinant Gelatinase A (MMP-2) (Homo sapiens, UniProt P08253); assay: P218 quenched fluorescence assay for MMP inhibition: MMP-2; assay type: biochemical
T1 sequence (P08253 110-660): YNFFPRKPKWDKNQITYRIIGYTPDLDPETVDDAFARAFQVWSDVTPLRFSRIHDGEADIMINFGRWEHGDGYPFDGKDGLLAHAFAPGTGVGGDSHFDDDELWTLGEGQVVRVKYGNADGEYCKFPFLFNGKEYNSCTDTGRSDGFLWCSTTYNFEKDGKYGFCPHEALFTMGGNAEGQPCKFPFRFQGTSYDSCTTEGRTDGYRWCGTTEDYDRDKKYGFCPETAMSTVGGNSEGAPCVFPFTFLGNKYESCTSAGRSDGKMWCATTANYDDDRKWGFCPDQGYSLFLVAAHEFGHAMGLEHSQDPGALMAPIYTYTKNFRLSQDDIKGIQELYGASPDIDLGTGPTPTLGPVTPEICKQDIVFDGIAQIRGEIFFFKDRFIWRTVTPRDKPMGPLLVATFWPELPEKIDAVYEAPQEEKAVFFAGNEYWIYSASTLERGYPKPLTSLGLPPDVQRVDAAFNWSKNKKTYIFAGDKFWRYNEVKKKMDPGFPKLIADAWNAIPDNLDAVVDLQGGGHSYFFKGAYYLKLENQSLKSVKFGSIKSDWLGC

[2] = target: T2, Recombinant Human CHO Stromelysin (MMP-3) (Homo sapiens, UniProt P08254); assay: P218 quenched fluorescence assay for MMP inhibition: MMP-3; assay type: biochemical; details: P218 substrate 6 μM, pH 6.5, 25 min at 37° C.; read-out: MMP-3 Fluorogenic IC-50
T2 construct: made in house; host or cells: CHO cells (as described by Housley et al., J. Biol. Chem. 268, 4481, 1993)
T2 sequence (P08254 100-477): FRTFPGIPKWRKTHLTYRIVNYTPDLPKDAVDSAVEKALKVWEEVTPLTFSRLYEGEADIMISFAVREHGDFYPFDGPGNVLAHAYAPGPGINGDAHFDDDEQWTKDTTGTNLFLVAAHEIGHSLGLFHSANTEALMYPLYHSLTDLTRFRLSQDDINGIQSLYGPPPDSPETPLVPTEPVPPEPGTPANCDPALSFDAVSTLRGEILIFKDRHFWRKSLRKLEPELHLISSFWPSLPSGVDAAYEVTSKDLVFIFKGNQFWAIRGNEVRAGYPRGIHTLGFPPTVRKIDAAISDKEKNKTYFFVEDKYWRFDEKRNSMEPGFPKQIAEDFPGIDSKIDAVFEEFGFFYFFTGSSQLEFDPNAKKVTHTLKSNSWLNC
Excerpt: (§1) P218 Quenched Fluorescence Assay for MMP Inhibition:
(§2) The P218 quenched fluorescence assay (Microfluorometric Profiling Assay) is a modification of that originally described by Knight, et al., FEBS Lett. 296, 263, 1992 for a related substance and a variety of matrix metalloproteinases (MMPs) in cuvettes. The assay was run with each invention compound and the three MMPs, MMP-3, MMP-9 and MMP-2, analyzed in parallel, adapted as follows for a 96-well microtiter plate and a Hamilton AT® workstation.
(§3) P218 Fluorogenic Substrate:
(§4) P218 is a synthetic substrate containing a 4-acetyl-7-methoxycoumarin (MCA) group in the N-terminal position and a 3-[2,4-dinitrophenyl]-L-2,3-diaminopropionyl (DPA) group internally. This is a modification of a peptide reported by Knight (1992) that was used as a substrate for matrix metalloproteinases. Once the P218 peptide is cleaved (putative clip site at the Ala-Leu bond), the fluorescence of the MCA group can be detected on a fluorometer with excitation at 328 nm and emission at 393 nm. P218 is currently being produced BACHEM exclusively for Bayer. P218 has the structure:
(§5) H-MCA-Pro-Lys-Pro-Leu-Ala-Leu-DPA-Ala-Arg-NH2 (MW 1332.2)
Recombinant Human CHO Stromelysin (MMP-3)
Recombinant Human CHO Pro-MMP-3: Human CHO pro-stromelysin-257 (pro-MMP-3) was expressed and purified as described by Housley, et al., J. Biol. Chem. 268, 4481, 1993.
Activation of Pro-MMP-3: Pro-MMP-3 at 1.72 μM (100 μg/mL) in 5 mM Tris at pH 7.5, 5 mM CaCl2, 25 mM NaCl, and 0.005% Brij-35 MMP-3) activation buffer) was activated by incubation with TPCK (N-tosyl-(L)-phenylalanine chloromethyl ketone) trypsin (1:100 w/w to pro-MMP-3) at 25° C. for 30 min. The reaction was stopped by addition of soybean trypsin inhibitor (SBTI; 5:1 w/w to trypsin concentration). This activation protocol results in the formation of 45 kDa active MMP-3, which still contains the C-terminal portion of the enzyme.
(§6) Hamiltion Microlab AT Plus: The MMP-Profiling Assay is performed robotically on a Hamilton MicroLab AT Plus®. The Hamilton is programmed to: (1) serially dilute up to 11 potential inhibitors automatically from a 2.5 mM stock in 100% DMSO; (2) distribute substrate followed by inhibitor into a 96 well Cytofluor plate; and (3) add a single enzyme to the plate with mixing to start the reaction. Subsequent plates for each additional enzyme are prepared automatically by beginning the program at the substrate addition point, remixing the diluted inhibitors and beginning the reaction by addition of enzyme. In this way, all MMP assays were done using the same inhibitor dilutions.
(§7) Millipore Cytofluor II. Following incubation, the plate was read on a Cytofluor II fluorometric plate reader with excitation at 340 nm and emission at 395 nm with the gain set at 80.
(§8) Microfluorometric Reaction Buffer (MRB): Dilution of test compounds, enzymes, and P218 substrate for the microfluorometric assay were made in microfluorometric reaction buffer consisting of 50 mM 2-(N-morpholino)ethanesulfonic acid (MES) at pH 6.5 with 10 mM CaCl2, 150 mM NaCl, 0.005% Brij-35 and 1% DMSO.
(§9) MMP Microfluorometric Profiling Assay. The assay is done with a final substrate concentration of 6 μM P218 and approximately 0.5 to 0.8 nM MMP with variable drug concentrations. The Hamilton is programmed to serially dilute up to 11 compounds from a 2.5 mM stock (100% DMSO) to 10x the final compounds concentrations in the assay. Initially, the instrument delivers various amounts of microfluoromentric reaction buffer (MRB) to a 96 tube rack of 1 ml Marsh dilution tubes. The instrument then picks up 20 μl of inhibitor (2.5 mM) from the sample rack and mixes it with a buffer in row A of the Marsh rack, resulting in a 50 μM drug concentration. The inhibitors are then serially diluted to 10, 5, 1, 0.2, 0.05 and 0.01 μM. […]

[3] = target: T3, Human Recombinant Gelatinase B (MMP-9) (Homo sapiens, UniProt P14780); assay: P218 quenched fluorescence assay for MMP inhibition: MMP-9; assay type: biochemical; details: P218 substrate 6 μM, pH 6.5, 25 min at 37° C.; for MMP-9 Fluorogenic, I (percent inhibition): inhibitor concentration not given; for IC50: read-out: MMP-9 Fluorogenic IC-50
T3 construct: made in house; host or cells: baculovirus protein expression system
T3 sequence (P14780 107-707 limits assumed): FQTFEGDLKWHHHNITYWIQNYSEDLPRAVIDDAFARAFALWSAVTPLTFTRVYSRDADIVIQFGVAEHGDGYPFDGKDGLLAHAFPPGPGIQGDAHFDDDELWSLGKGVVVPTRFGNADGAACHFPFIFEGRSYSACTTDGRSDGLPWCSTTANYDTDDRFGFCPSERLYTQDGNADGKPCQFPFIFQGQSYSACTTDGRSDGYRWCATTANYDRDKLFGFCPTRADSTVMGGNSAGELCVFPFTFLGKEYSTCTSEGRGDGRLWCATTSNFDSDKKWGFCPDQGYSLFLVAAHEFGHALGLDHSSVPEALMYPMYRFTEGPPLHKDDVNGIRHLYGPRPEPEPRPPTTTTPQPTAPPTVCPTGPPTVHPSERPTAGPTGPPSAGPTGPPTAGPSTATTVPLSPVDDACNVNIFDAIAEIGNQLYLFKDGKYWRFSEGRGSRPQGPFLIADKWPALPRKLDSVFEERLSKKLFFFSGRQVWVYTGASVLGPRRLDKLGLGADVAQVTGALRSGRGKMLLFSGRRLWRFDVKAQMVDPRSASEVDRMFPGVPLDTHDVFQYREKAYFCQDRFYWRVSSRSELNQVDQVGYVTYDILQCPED
Excerpt: as §1, §2, §3, §4, §5
Preparation of Human Recombinant Pro-Gelatinase B (MMP-9):
Recombinant Human Pro-MMP-9: Human pro-gelatinase B (pro-MMP-9) derived from U937 cDNA as described by Wilhelm, et al. J. Biol. Chem. 264, 17213, 1989 was expressed as the full-length form using a baculovirus protein expression system. The pro-enzyme was purified using methods previously described by Hibbs, et al. J. Biol. Chem. 260, 2493, 1984.
Activation of Pro-MMP-9: Pro-MMP-2 20 μg/ml in 50 mM Tris at pH 7.4, 10 mM CaCl2, 150 mM NaCl, and 0.005% Brij-35 (MMP-9 activation buffer) was activated by incubation with 0.5 mM p-aminophenylmercuric acetate (APMA) for 3.5 h at 37° C. The enzyme was dialyzed against the same buffer to revmove the APMA.
as §6, §7, §8, §9

[4] = Child, et al., J. Pharm. Sci. 66, 466, 1977; cited from earlier work
[5] = test system: human ovarian carcinoma xenografts; details: given intraperitoneally; cited from earlier work
human colon tumor = details: given intraperitoneally; orthotopic model in nude mice; cited from earlier work
[6] = P218 substrate 6 μM, pH 6.5, 25 min at 37° C., read-out: MMP-2 Fluorogenic IC-50

Structure (SMILES): O=C(C[C@H](CCCc1ccccc1)C(=O)O)c1ccc(-c2ccc(C#CCO)cc2)cc1 [II, S-4'-(3-hydroxy-1-propynyl)-λ-oxo-α-(3-phenylpropyl)-[1,1'-biphenyl]-4-butanoic acid]
- IC50 [1, 6]: 252 nM
- IC50 [2]: 2180 nM
- MMP-9 Fluorogenic, I (percent inhibition) [3]: 35%

Structure (SMILES): CC(CC(=O)c1ccc(-c2ccccc2)cc1)C(=O)O (stereo not shown) [compound XLVII]
- anti-inflammatory activity (in words) [4]: inactive

Structure (SMILES): COCC#Cc1ccc(-c2ccc(C(=O)CC(CCCc3ccccc3)C(=O)O)cc2)cc1 (stereo not drawn) [IV, 4'-(3-methoxy-1-propynyl)-λ-oxo-α-(3-phenylpropyl)-[1,1'-biphenyl]-4-butanoic acid]
- IC50 [1, 6]: 21 nM
- IC50 [2]: 38 nM
- IC50 [3]: 704 nM

Structure (SMILES): O=C(CC(CCCc1ccccc1)C(=O)O)c1ccc(-c2ccc(C#Cc3cccc(O)c3)cc2)cc1 (stereo not shown) [XIV]
- IC50 [1, 6]: 85 nM
- IC50 [2]: 125 nM
- MMP-9 Fluorogenic, I (percent inhibition) [3]: 46%

Structure (SMILES): O=C(CC(CCCc1ccccc1)C(=O)O)c1ccc(-c2ccc(C#CCCO)cc2)cc1 (stereo not drawn) [VIII, 4'-(4-hydroxy-1-butynyl)-λ-oxo-α-(3-phenylpropyl)-[1,1'-biphenyl]-4-butanoic acid]
- IC50 [1, 6]: 6 nM
- IC50 [2]: 32 nM
- IC50 [3]: 122 nM

Structure (SMILES): O=C(CC(CCCc1ccccc1)C(=O)O)c1ccc(-c2ccc(C#Cc3ccccc3)cc2)cc1 (stereo not drawn) [XIII, λ-oxo-4'-(phenylethynyl)-α-(3-phenylpropyl)-[1,1'-biphenyl]-4-butanoic acid]
- IC50 [1, 6]: 245 nM
- IC50 [2]: 405 nM

Structure (SMILES): O=C(CC(CCN1C(=O)c2ccccc2C1=O)C(=O)O)c1ccc(-c2ccc(C#CCO)cc2)cc1 (stereo not shown) [Compound XVI]
- IC50 [1]: 1 nM
- IC50 [2]: 4 nM
- IC50 [3]: 2 nM

Structure (SMILES): O=C(CC(CCN1C(=O)c2ccccc2C1=O)C(=O)O)c1ccc(-c2ccc(C#CCOCc3ccccc3)cc2)cc1 (stereo not drawn) [Compound XV, 1,3-dihydro-1,3-dioxo-α-[2-oxo-2-[4'-[3(phenylmethoxy)-1-propynyl][1,1'-biphenyl]-4-yl]ethyl]-2H-isoindole-2-butanoic acid]
- IC50 [1, 6]: 5 nM
- IC50 [2]: 11 nM
- IC50 [3]: 40 nM

Structure (SMILES): CCOC(=O)OCC#Cc1ccc(-c2ccc(C(=O)CC(CCCc3ccccc3)C(=O)O)cc2)cc1 (stereo not drawn) [Compound VII, 4'-[3-[(ethoxycarbonyl)oxy]-1-propynyl]-λ-oxo-α-(3-phenylpropyl)-[1,1'-biphenyl]-4-butanoic acid]
- IC50 [1, 6]: 103 nM
- IC50 [2]: 67 nM
- IC50 [3]: 2460 nM

Structure (SMILES): O=C(CC(CCCc1ccccc1)C(=O)O)c1ccc(-c2ccc(C#CCCCCO)cc2)cc1 (stereo not shown) [XII]
- IC50 [1, 6]: 36 nM
- IC50 [2]: 56.6 nM
- IC50 [3]: 614 nM

Structure (SMILES): O=C(C[C@@H](CCCc1ccccc1)C(=O)O)c1ccc(-c2ccc(C#CCO)cc2)cc1 [III]
- IC50 [1, 6]: 1 nM
- IC50 [2]: 5 nM
- IC50 [3]: 37 nM

Structure (SMILES): O=C(O)CCC#Cc1ccc(-c2ccc(C(=O)CC(CCCc3ccccc3)C(=O)O)cc2)cc1 (stereo not drawn) [Compound X, 4'-(4-carboxy-1-butynyl)-λ-oxo-α-(3-phenylpropyl)-[1,1'-biphenyl]-4-butanoic acid]
- IC50 [1, 6]: 108 nM
- IC50 [2]: 203 nM
- MMP-9 Fluorogenic, I (percent inhibition) [3]: 27%

Structure (SMILES): O=C(CC(C(=O)O)c1ccccc1)c1ccc(-c2ccccc2)cc1 (stereo not shown) [XLIX]
- anti-inflammatory activity (in words) [4]: inactive

Structure (SMILES): O=C(CC(CCCc1ccccc1)C(=O)O)c1ccc(-c2ccc(C#CCO)cc2)cc1 (racemic) [Compound I]
- IC50 [1, 6]: 4 nM
- IC50 [2]: 21 nM
- IC50 [3]: 106 nM

Structure (SMILES): O=C(O)CC(C(=O)c1ccc(-c2ccccc2)cc1)c1ccccc1 (stereo not shown) [LXXVII]
- anti-inflammatory activity (in words) [4]: inactive

Structure (SMILES): CCCN(CC#Cc1ccc(-c2ccc(C(=O)CC(CCCc3ccccc3)C(=O)O)cc2)cc1)CCC (stereo not shown) [Compound V]
- IC50 [1, 6]: 235 nM
- IC50 [2]: 327 nM
- IC50 [3]: 2630 nM

Structure (SMILES): CNC(=O)[C@H](Cc1ccccc1)NC(=O)[C@H](CC(C)C)[C@H](CSc1cccs1)C(=O)NO [batimastat]
- survival of mice bearing human ovarian carcinoma xenografts [5]: prolongs the survival of mice
- human colon tumor growth and spread (human colon tumor): inhibits human colon tumor growth and spread

Structure (SMILES): CC(=O)OCCC#Cc1ccc(-c2ccc(C(=O)CC(CCCc3ccccc3)C(=O)O)cc2)cc1 (stereo not shown) [IX]
- IC50 [1, 6]: 37 nM
- IC50 [2]: 57 nM
- IC50 [3]: 542 nM

Structure (SMILES): CC(=O)OCC#Cc1ccc(-c2ccc(C(=O)CC(CCCc3ccccc3)C(=O)O)cc2)cc1 (stereo not drawn) [Compound VI, 4'-[3-(acetyloxy)-1-propynyl]-λ-oxo-α-(3-phenylpropyl)-[1,1'-biphenyl]-4-butanoic acid]
- IC50 [1, 6]: 14 nM
- IC50 [2]: 36 nM
- IC50 [3]: 834 nM

Structure (SMILES): O=CCCCC#Cc1ccc(-c2ccc(C(=O)CC(CCCc3ccccc3)C(=O)O)cc2)cc1 (stereo not drawn) [Compound XI, λ-oxo-4'-(5-oxo-1-pentynyl)-α-(3-phenylpropyl)-[1,1'biphenyl]-4-butanoic acid]
- IC50 [1, 6]: 596 nM
- IC50 [2]: 1730 nM
- MMP-9 Fluorogenic, I (percent inhibition) [3]: 24%
